In the NIST ThermoML archive (doi:10.1016/j.jct.2015.03.001):

Tests used:
[1] = refractive index (Na D-line) (dimensionless); xn = mol fraction of the nth substance listed; settings: 99 kPa, Liquid, Abbe refractometer
[2] = relative permittivity at various frequencies (dimensionless); xn = mol fraction of the nth substance listed; settings: 99 kPa, Liquid, Frequency=2 MHz, Parallel plate capacitor

CCC(C)Cl (centres undefined) [2-chlorobutane] + CCCCCC
Settings | refractive index, 283.15 K | refractive index, 298.15 K | refractive index, 313.15 K | relative permittivity, 283.15 K | relative permittivity, 298.15 K | relative permittivity, 313.15 K
[1], x2 = 0 | 1.40226 | 1.39404 | 1.38562 | – | – | –
[1], x2 = 0.0471 | 1.40083 | 1.3926 | 1.38418 | – | – | –
[1], x2 = 0.0973 | 1.39939 | 1.39115 | 1.38274 | – | – | –
[1], x2 = 0.1986 | 1.39658 | 1.38833 | 1.37993 | – | – | –
[1], x2 = 0.293 | 1.39412 | 1.38584 | 1.37742 | – | – | –
[1], x2 = 0.4036 | 1.39142 | 1.38315 | 1.3747 | – | – | –
[1], x2 = 0.5099 | 1.38903 | 1.38071 | 1.37229 | – | – | –
[1], x2 = 0.6202 | 1.38673 | 1.37842 | 1.37002 | – | – | –
[1], x2 = 0.708 | 1.38508 | 1.37678 | 1.3684 | – | – | –
[1], x2 = 0.8068 | 1.38338 | 1.3751 | 1.36674 | – | – | –
[1], x2 = 0.908 | 1.38183 | 1.37356 | 1.36523 | – | – | –
[1], x2 = 0.9555 | 1.38113 | 1.37286 | 1.36454 | – | – | –
[2], x2 = 0 | – | – | – | 9.323 | 8.652 | 8.07
[2], x2 = 0.0536 | – | – | – | 8.752 | 8.128 | 7.593
[2], x2 = 0.0967 | – | – | – | 8.282 | 7.716 | 7.222
[2], x2 = 0.1993 | – | – | – | 7.216 | 6.76 | 6.345
[2], x2 = 0.2995 | – | – | – | 6.242 | 5.881 | 5.556
[2], x2 = 0.3993 | – | – | – | 5.389 | 5.093 | 4.827
[2], x2 = 0.4997 | – | – | – | 4.625 | 4.39 | 4.182
[2], x2 = 0.5974 | – | – | – | 3.963 | 3.786 | 3.626
[2], x2 = 0.7026 | – | – | – | 3.366 | 3.225 | 3.106
[2], x2 = 0.8044 | – | – | – | 2.811 | 2.72 | 2.642
[2], x2 = 0.9006 | – | – | – | 2.349 | 2.296 | 2.253
[2], x2 = 0.9472 | – | – | – | 2.137 | 2.105 | 2.07

CCC(C)Cl (centres undefined) [2-chlorobutane] + CCCCCCC
Settings | refractive index, 283.15 K | refractive index, 298.15 K | refractive index, 313.15 K | relative permittivity, 283.15 K | relative permittivity, 298.15 K | relative permittivity, 313.15 K
[1], x2 = 0 | 1.40226 | 1.39404 | 1.38562 | – | – | –
[1], x2 = 0.0483 | 1.40141 | 1.39319 | 1.3848 | – | – | –
[1], x2 = 0.1024 | 1.40056 | 1.39238 | 1.38401 | – | – | –
[1], x2 = 0.2021 | 1.39912 | 1.391 | 1.38268 | – | – | –
[1], x2 = 0.303 | 1.39778 | 1.3897 | 1.38144 | – | – | –
[1], x2 = 0.4031 | 1.3966 | 1.38859 | 1.38038 | – | – | –
[1], x2 = 0.5066 | 1.39562 | 1.38765 | 1.37951 | – | – | –
[1], x2 = 0.5998 | 1.39489 | 1.38699 | 1.3789 | – | – | –
[1], x2 = 0.7051 | 1.39429 | 1.38642 | 1.37841 | – | – | –
[1], x2 = 0.8055 | 1.39382 | 1.38603 | 1.37807 | – | – | –
[1], x2 = 0.9123 | 1.39337 | 1.38563 | 1.37773 | – | – | –
[1], x2 = 0.9433 | 1.39322 | 1.38549 | 1.37761 | – | – | –
[2], x2 = 0 | – | – | – | 9.323 | 8.652 | 8.07
[2], x2 = 0.0498 | – | – | – | 8.838 | 8.22 | 7.684
[2], x2 = 0.101 | – | – | – | 8.296 | 7.73 | 7.247
[2], x2 = 0.1985 | – | – | – | 7.191 | 6.75 | 6.373
[2], x2 = 0.3008 | – | – | – | 6.131 | 5.792 | 5.51
[2], x2 = 0.3994 | – | – | – | 5.252 | 5 | 4.774
[2], x2 = 0.503 | – | – | – | 4.471 | 4.283 | 4.1
[2], x2 = 0.6009 | – | – | – | 3.84 | 3.698 | 3.56
[2], x2 = 0.7053 | – | – | – | 3.268 | 3.165 | 3.063
[2], x2 = 0.8026 | – | – | – | 2.79 | 2.731 | 2.659
[2], x2 = 0.9027 | – | – | – | 2.352 | 2.309 | 2.276
[2], x2 = 0.9463 | – | – | – | 2.164 | 2.133 | 2.108
